These results are taken from patent US8058442B2 (Technion Research and Development Foundation Ltd., priority 2002, dated 2011).

Data set [1] is described as follows: Iron chelation in solution: fluorescence dequenching of iron-quenched calcein. The following applies: Fe-CAL in HBS pH 7.4, room temperature, 1 h incubation, read-out: half maximal dequenching level. The method, then:
Iron binding was determined by the chelator capacity for restoring the fluorescence of iron-quenched calcein (CAL), a dynamic fluorescent metallosensor. The iron-scavenging properties of the chelators were assessed in solution, by mixing iron salts with free CAL.
Iron precomplexed calcein (Fe-CAL) solutions of 1 μm (in Hepes 20 mM buffered saline, pH 7.4=HBS) were incubated in the presence of the indicated concentrations of different chelators at room temperature and the fluorescence intensity (475 nm->520 nm) followed with time in a Tecan fluorescence plate reader, using 96-well culture plates (Nunc) at 100 μl final volume. The time-dependent complexation of iron from Fe-CAL by the chelators was followed by fluorescence dequenching. The fluorescence intensity attained after 1 h incubation is shown as a function of the chelator concentration.
The corresponding half maximal dequenching level for the corresponding chelator was (in μM) (rank order from the fastest acting to the slowest): […]

Data set [2] in a line: n-octanol/water shake-flask distribution coefficient. In kind it is physicochemical. Conditions: for D in 0.01N HCl / D in 0.01N NaOH / D in H2O: distribution ratio D = Corg/Caq. An excerpt: The partition coefficient (Pow) or the distribution ratio (Dow) between octanol and water are most commonly used measures of the hydrophobicity of compounds. Dow can depend on the concentration of solute, but at reasonably low concentrations. If the solute is in the same form in both phases, Dow becomes constant and is called the partition coefficient Pow. Pow plays an important role in determining the physico-chemical properties and the behaviour of numerous organic compounds in biological systems. Pow is applied to quantitative structure-activity relationship studies, and as a measure of hydrophobicity. All the partition measurements are carried out using a 1-octanol/water shake-flask procedure (Leo, A J. 1991, “Hydrophobic parameter: measurement and calculation”, Methods Enzymol. 202:544-91) or simply by the elution time of solute from HPLC column. Thereafter, the transport properties of the iron-complexes are examined in the water/lipid membrane system (liposomes), which mimics biomembranes much better than the octanol/water system (Breuer et al, 1995).
1-Octanol (Riedel-deHaën, synthesis grade (250-270 nm abs.<0.06) and glass distilled deionized water were used as the partitioning solutions. A Hewlett-Packard 8450A diode array spectrophotometer was used for the quantitative determination of the tested com-pounds in the standard solutions and in the partitioned solutions. The aqueous phase stock solutions were shaken with an excess of 1-octanol to presaturate them and were then allow-ed to stand overnight before use. The 1-octanol stock solutions were also presaturated with 10 mM NaOH and allowed to settle overnight. The experiments were performed in 10-ml stoppered centrifuge tubes. The tubes were inverted gently for 5 min and then, to assure complete phase separation, they were centrifuged for 20 min at 1,000-2,000 g. The aqueous and organic phases were removed separately and analyzed by UV spectrophotometry.
Lipophilicity plays an important role in drug absorption and distribution. The logarithm of the n-octanol/water distribution coefficients (logD) is the most commonly used measure of the lipophilicity of a drug candidate. Here we used an n-octanol/water shake-flask procedure to determine logD. […] In acidic and basic solution, all the test compounds have low log D values, which refer to a good hydrophilicity. This can be explained by the formation of oxinium chloride (in acid) and sodium oxinate (in base) derivatives.

The test system of data set [3] is human erythroleukemia K562 cells. Kind of data set: Iron permeation of the chelators into calcein-loaded K562 cells. In kind it is cell-based. Conditions: 5 μM chelator, 37° C. The procedure: The iron-scavenging properties of the chelators were assessed in human erythroleukemia K562 cells, by loading with the permeant CAL-AM probe, in situ formation of free CAL, and binding of cytosolic labile iron. Calcein-AM readily passes through the cell membrane of viable cells because of the enhanced hydrophobicity as compared to Calcein. When Calcein-AM permeates into the cytoplasm, it is hydrolyzed by esterases in cells to the parent Calcein, a pH-independent, cytosolic fluorescent marker, which remains inside of the cell. The time-dependent recovery of fluorescence in the presence of a given chelator provided a continuous measure for the capacity of the chelator to access the iron/CAL-containing compartment.
Calcein uptake and intracellular fluorescence were determined as follows: K562 erythroleukemia cells were preloaded with calcein (CAL) by incubation with […] of the fluorescent probe CAL-AM for 5 min at 37° C., washed and incubated in HBS medium containing anti-CAL antibodies in order to quench traces of extracellular-associated fluorescence. The suspensions were placed in 96-well plates (100 μl final volume) and analyzed as described above while maintaining the system at 37° C. At the indicated time, the indicated chelator was added so as to reach a final 5 μM concentration.
The values of half maximal time (sec) and fraction of fluorescence recovery were: […]

Where two headings read alike, the source gives them in different places. Marks after values point to notes of the source that are not given here.

As to `CCOC(=O)C(Cc1ccc(O)c2ncccc12)(NC(C)=O)C(=O)OCC`, the EC50 in data set [1] (FIG. 1A) was 5 µM. In addition, the pH-dependent lipophilicity (logD) is 2.19 in data set [2] (H2O, read-out: LogD in H2O); -1.37 in data set [2] (pH 2, 0.01N HCl, read-out: LogD in 0.01N HCl); -1.01 in data set [2] (pH 12, 0.01N NaOH, read-out: LogD in 0.01N NaOH). Moreover, the “D in 0.01N HCl” value in data set [2] (0.01N HCl) is 0.043. Moreover, the “D in 0.01N NaOH” value in data set [2] (0.01N NaOH) is 0.097. In data set [2] (H2O), the “D in H2O” value worked out at 155.68.

Turning to `NC(Cc1ccc(O)c2ncccc12)C(=O)O` (racemic) [HLM8, DL-3-(8-hydroxyquinolin-5-yl)alanine], in data set [1] (FIG. 1A), the EC50 was 6 µM. Besides, the half maximal time in data set [3] (FIG. 2A) was 600 s. In addition, the logD was under -2 in data set [2], under -2 in data set [2] (pH 2) and -1.7 in data set [2] (pH 12). In addition, the “D in 0.01N HCl” value in data set [2] (0.01N HCl) amounted to 0.0031. Moreover, the “D in 0.01N NaOH” value in data set [2] (0.01N NaOH) worked out at 0.020. Further, in data set [2] (H2O), the “D in H2O” value was 0.0049.

As for `CCOC(=O)C(N)Cc1ccc(O)c2ncccc12` (racemic) [HLM9, DL-3-(8-hydroxyquinolin-5-yl)alanine ethyl ester], the EC50 in data set [1] (FIG. 1A) is 7.2 µM. For the same compound, in data set [3] (FIG. 2A), the half maximal time is 200 s. In addition, the logD is -1.7 in data set [2], -1.42 in data set [2] (pH 5.64) and under -2 in data set [2] (pH 12). Also, the “D in 0.01N NaOH” value in data set [2] (0.01N NaOH) was 0.0014. Moreover, the “D in H2O” value in data set [2] (H2O) is given as 0.018. In addition, the D in data set [2] (phosphate buffer (pH = 5.64), printed in the 0.01N HCl column) is 0.038^b.

`Cc1c(O)c(=O)ccn1C` [Compound L1, 1,2-dimethyl-3-hydroxy-pyridin-4-one, reference compound]: the EC50 was 8.3 µM in data set [1] (FIG. 1A), 8.4 µM in data set [1] (FIG. 1B) and 6.6 µM in data set [1] (FIG. 1C).

`N[C@H](Cc1ccc(O)c2ncccc12)C(=O)O` [Compound M9, D-3-(8-hydroxyquinolin-5-yl)alanine]: the EC50 in data set [1] (FIG. 1B) was 9.7 µM.

Regarding `N[C@@H](Cc1ccc(O)c2ncccc12)C(=O)O` [Compound M10, L-3-(8-hydroxyquinolin-5-yl)alanine], the EC50 in data set [1] (FIG. 1B) is 9.85 µM. Moreover, the half maximal time in data set [3] (FIG. 2B) is 1050 s.

For `N[C@H](CSCc1ccc(O)c2ncccc12)C(=O)O` [Compound M11, S-(8-hydroxyquinolin-5-ylmethyl)-D-cysteine], the EC50 in data set [1] (FIG. 1C) is 5.4 µM.

`N[C@@H](CSCc1ccc(O)c2ncccc12)C(=O)O` [Compound M12, S-(8-hydroxyquinolin-5-ylmethyl)-L-cysteine]: in data set [1] (FIG. 1C), the EC50 was 6 µM.

With `CC(=O)N(O)CCCCCNC(=O)CCC(=O)N(O)CCCCCNC(=O)CCC(=O)N(O)CCCCCN` [DFO, desferrioxamine B, reference compound], the EC50 in data set [1] (FIG. 1A), in data set [1] (FIG. 1B) and in data set [1] (FIG. 1C) was 0.5 µM each time.

Take `CCOC(=O)N1CCN(Cc2ccc(O)c3ncccc23)CC1` [HLA16, ethyl 4-(8-hydroxyquinolin-5-ylmethyl)-1-piperazine carboxylate]: the EC50 in data set [1] (FIG. 1A) is 3.5 µM; in data set [1] (FIG. 1B) it was 4.4 µM. The half maximal time was 225 s in data set [3] (FIG. 2A) and 220 s in data set [3] (FIG. 2B). Also, the logD in data set [2] was 1.79; in data set [2] (pH 2), -1.74; in data set [2] (pH 12) it was 0.39. Also, the “D in 0.01N HCl” value in data set [2] (0.01N HCl) stood at 0.018. Besides, the “D in 0.01N NaOH” value in data set [2] (0.01N NaOH) came out at 2.44. Further, the “D in H2O” value in data set [2] (H2O) is listed as 62.96.

In the case of `O=C(NN=Cc1ccccc1O)c1ccncc1` [SIH, salicylaldehyde isonicotinoyl hydrazone, reference compound], the half maximal time was 125 s in data set [3] (FIG. 2A) and 100 s in data set [3] (FIG. 2C).

As to Fmoc-KKC(HQ)L-NH2 [Compound M7], the EC50 in data set [1] (FIG. 1C) is 3.4 µM.
